Source: US20190381014A1, “ISOQUINOLINONE COMPOUNDS AND USE THEREOF IN PREPARATION OF ANTIVIRAL DRUGS” (Ginkgo Pharma Co., Ltd., priority 2016, published 2019)

Key:
[1] = Rat PK study (single IV and PO dose, plasma LC-MS/MS); type: in vivo, S-D rats; conditions: for F / AUC(0-t) / clearance / half-life / Vd / Cmax / Tmax: S-D rats; for F: PO 10 mg/kg vs IV 2 mg/kg; for AUC(0-t) / clearance / half-life / Vd / Cmax / Tmax: Sprague-Dawley (S-D), rat, plasma; for Vd: read-out: Vdss; for PK properties (overall judgement): combining PK data of IV and PO
Method: Preparation of intravenous injection formulation: accurately weighing 2-3 mg of a sample, adding appropriate amount of N,N-dimethylacetamide (DMA), vortex oscillating to completely dissolve the solid matter; adding an appropriate volume of 30% Solutol HS-15 aqueous solution, vortex oscillating and then adding saline, so that DMA: 30% Solutol HS-15:saline=20:20:60 (v/v/v), vortex oscillating the liquid to mix the liquid evenly, and filtering to obtain a pharmaceutical preparation of a concentration of 0.4 mg·mL^−1.
Preparation of oral formulation: accurately weighing 10 mg of a sample, adding an appropriate volume of 0.5% CMC-Na aqueous solution, vortex oscillating and ultrasounding to mix the liquid evenly to obtain a pharmaceutical preparation of a concentration of 1 mg·mL^−1.
The formulations were freshly prepared on the day of administration, and samples were reserved and taken for the determination of the actual concentration.
S-D rats of Group A were given a single intravenous injection (IV) of 2 mg·kg^−1, respectively; S-D rats of Group B were given a single gavage administration (PO) of 10 mg·kg^−1, respectively. Approximately 0.15 mL of blood sample will was collected via jugular vein into EDTA-K2 tubes at the designated time points of pre-dose, and 5 min (IV only), 15 min, 30 min, 1 h, 2 h, 4 h, 8 h, 12 h and 24 h post dose. All of the whole blood samples were centrifuged for 10 min (at 5500 rpm) to obtain plasma samples, which were stored at a refrigerator below −30˜−10° C. Concentrations of compounds in the plasma samples were analyzed using a LC-MS/MS method. The pharmacokinetic parameters were calculated using non-compartment model in Pharsight Phoenix 7.0 software. See Tables 2a and 2b for the results.

HBsAg = HBsAg inhibition in HepG2.2.15 culture supernatant (ELISA); type: cell-based, HBV; conditions: Hepatitis B virus, HepG2.2.15, 192 h, read-out: Activity in HBsAg inhibition, EC50
Method: Test method: HepG2.2.15 cell line was seeded into 96-well plates at 1.5×10^4 cells/well. On the following day, the cells were treated with a three-fold serial dilution series of the compounds at eight concentration points, and 2 duplicate wells were determined in parallel. The final DMSO concentration in the culture solution was 0.5%. On the fifth day, the culture solution was replaced with fresh solution containing the compounds. On the eighth day, the culture supernatant was collected and the HBsAg in the culture supernatant was detected by ELISA. The percent inhibition was calculated with respect to the blank control.

SMILES | F [1] | AUC(0-t) ([1]; IV 2 mg/kg) | clearance ([1]; IV 2 mg/kg) | half-life ([1]; IV 2 mg/kg) | Vd ([1]; IV 2 mg/kg) | AUC(0-t) ([1]; PO 10 mg/kg) | Cmax ([1]; PO 10 mg/kg) | Tmax ([1]; PO 10 mg/kg) | half-life ([1]; PO 10 mg/kg) | PK properties (overall judgement) [1] | EC50 (HBsAg)
COCC1(COc2cc3c(cc2OC)-c2cc(=O)c(C(=O)O)cn2[C@H](C(C)C)C3)CC1 [Compound I-6, (S)-6-isopropyl-10-methoxy-9-((1-(methoxymethyl)cyclopropyl)methoxy)-2-oxo-6,7-dihydro-2H-pyrido[2,1-α]isoquinoline-3-carboxylic acid] | 45.8% | 1.02 µg·h/mL | 2.02 L/h/kg | 0.71 h | 1.74 L/kg | 2.31 µg·h/mL | 1.49 µg/mL | 0.58 h | 1.9 h | good PK properties | 3.15 nM
COc1cc2c(cc1OCC1CC(OC)C1)C[C@@H](C(C)C)n1cc(C(=O)O)c(=O)cc1-2 (stereo partly drawn) [Compound I-8, (S)-6-isopropyl-10-methoxy-9-((3-methoxycyclobutyl)methoxy)-2-oxo-6,7-dihydro-2H-pyrido[2,1-α]isoquinoline-3-carboxylic acid] | 27.1% | 2.15 µg·h/mL | 0.942 L/h/kg | 0.89 h | 1.05 L/kg | 3.03 µg·h/mL | 0.739 µg/mL | 0.92 h | 1.3 h | good PK properties | 1.54 nM
COc1cc2c(cc1OC1CCCC1)C[C@@H](C(C)C)n1cc(C(=O)O)c(=O)cc1-2 [Compound I-10, (S)-9-(cyclopentyloxy)-6-isopropyl-10-methoxy-2-oxo-6,7-dihydro-2H-pyrido[2,1-α]isoquinoline-3-carboxylic acid] | 11.7% | 1.49 µg·h/mL | 1.36 L/h/kg | 0.88 h | 1.41 L/kg | 0.869 µg·h/mL | 0.265 µg/mL | 1 h | 1.3 h |  | 3.01 nM
COCCCOc1cc2c(cc1OC)-c1cc(=O)c(C(=O)O)cn1[C@H](C(C)C)C2 [A, reference compound] | 21.5% | 1.61 µg·h/mL | 1.25 L/h/kg | 0.94 h | 1.17 L/kg | 1.76 µg·h/mL | 0.475 µg/mL | 2.2 h | 1.5 h |  | 4.06 nM
COc1cc2c(cc1O[C@@H]1CCOC1)C[C@@H](C(C)C)n1cc(C(=O)O)c(=O)cc1-2 [Compound I-2, (S)-6-isopropyl-10-methoxy-2-oxo-9-(((R)-tetrahydrofuran-3-yl)oxy)-6,7-dihydro-2H-pyrido[2,1-α]isoquinoline-3-carboxylic acid] | 18.9% | 1.8 µg·h/mL | 1.12 L/h/kg | 1.8 h | 1.51 L/kg | 1.69 µg·h/mL | 0.437 µg/mL | 1.2 h | 1.6 h | good PK properties | 1.82 nM
COCC1(COc2cc3c(cc2OC)-c2cc(=O)c(C(=O)O)cn2[C@H](C(C)C)C3)COC1 [Compound I-7, (S)-6-isopropyl-10-methoxy-9-((3-(methoxymethyl)oxetan-3-yl)methoxy)-2-oxo-6,7-dihydro-2H-pyrido[2,1-α]isoquinoline-3-carboxylic acid] | 8.1% | 1.18 µg·h/mL | 1.73 L/h/kg | 0.67 h | 1.39 L/kg | 0.47 µg·h/mL | 0.103 µg/mL | 1 h | 1.4 h |  | 3.82 nM
COc1cc2c(cc1O[C@H]1C[C@H](OC)C1)C[C@@H](C(C)C)n1cc(C(=O)O)c(=O)cc1-2 [Compound I-5, (S)-6-isopropyl-10-methoxy-9-((1R,3S)-3-methoxycyclobutoxy)-2-oxo-6,7-dihydro-2H-pyrido[2,1-α]isoquinoline-3-carboxylic acid] | 37.7% | 2.94 µg·h/mL | 0.678 L/h/kg | 0.98 h | 0.858 L/kg | 5.5 µg·h/mL | 1.34 µg/mL | 0.5 h | 1.7 h | good PK properties | 1.61 nM
COc1cc2c(cc1C#CC1CC1)C[C@@H](C(C)C)n1cc(C(=O)O)c(=O)cc1-2 [Compound I-11, (S)-9-(cyclopropylethynyl)-6-isopropyl-10-methoxy-2-oxo-6,7-dihydro-2H-pyrido[2,1-α] isoquinoline-3-carboxylic acid] | 11.5% | 0.946 µg·h/mL | 2.15 L/h/kg | 0.58 h | 1.37 L/kg | 0.461 µg·h/mL | 0.119 µg/mL | 1.8 h | 3.2 h |  | 2.57 nM
COc1cc2c(cc1OCCCC(C)=O)C[C@@H](C(C)C)n1cc(C(=O)O)c(=O)cc1-2 [Compound I-9, (S)-6-isopropyl-10-methoxy-2-oxo-9-((4-oxopentyl)oxy)-6,7-dihydro-2H-pyrido[2,1-α]isoquinoline-3-carboxylic acid] | 4.3% | 0.504 µg·h/mL | 3.95 L/h/kg | 0.29 h | 0.942 L/kg | 0.105 µg·h/mL | 0.0799 µg/mL | 0.33 h | 1.8 h |  | 3.26 nM
